Laboratory results as given in the supplement of paper PMC10307832.

Tests used:
Test in all cases: relative viability (nuclei count vs DMSO), 5 days (fraction); higher = more cells survive
VE-821 + Pictilisib = compound: CS(=O)(=O)c1ccc(-c2cnc(N)c(C(=O)Nc3ccccc3)n2)cc1 [VE-821] + CS(=O)(=O)N1CCN(Cc2cc3nc(-c4cccc5[nH]ncc45)nc(N4CCOCC4)c3s2)CC1 [Pictilisib] (partner 1 µM)
In short: (§1)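 For relative viability, nuclei counts in treated wells were divided by those in vehicle wells. Lung cancer cell lines had been pin-tool dosed in 1536-well plates the day after seeding and cultured for 5 days, then fixed and stained in one step (final 0.05% Triton X-100, 1% formaldehyde, 1 ug/ml Hoechst) and imaged at 4×. Doses were one drug alone or a fixed anchor-drug dose plus five library-drug doses (not always all listed) in √10 steps, and values are duplicate-plate medians.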

Ruxolitinib + Linsitinib = compound: N#CC[C@H](C1CCCC1)n1cc(-c2ncnc3[nH]ccc23)cn1 [Ruxolitinib] + C[C@]1(O)C[C@@H](c2nc(-c3ccc4ccc(-c5ccccc5)nc4c3)c3c(N)nccn32)C1 [Linsitinib] (partner 1 µM)
In short: as §1

VE-821 + Palbociclib = compound: CS(=O)(=O)c1ccc(-c2cnc(N)c(C(=O)Nc3ccccc3)n2)cc1 [VE-821] + CC(=O)c1c(C)c2cnc(Nc3ccc(N4CCNCC4)cn3)nc2n(C2CCCC2)c1=O [Palbociclib] (partner 0.5 µM)
In short: as §1

Ruxolitinib + Navitoclax = compound: N#CC[C@H](C1CCCC1)n1cc(-c2ncnc3[nH]ccc23)cn1 [Ruxolitinib] + CC1(C)CCC(c2ccc(Cl)cc2)=C(CN2CCN(c3ccc(C(=O)NS(=O)(=O)c4ccc(N[C@H](CCN5CCOCC5)CSc5ccccc5)c(S(=O)(=O)C(F)(F)F)c4)cc3)CC2)C1 [Navitoclax] (partner 0.5 µM)
In short: as §1

Cell Line	relative viability (VE-821 + Pictilisib; first compound 0.08 µM)	relative viability (VE-821 + Pictilisib; first compound 0.253 µM)	relative viability (VE-821 + Pictilisib; first compound 0.8 µM)	relative viability (VE-821 + Pictilisib; first compound 2.53 µM)	relative viability (VE-821 + Pictilisib; first compound 8 µM)	relative viability (Ruxolitinib + Linsitinib; first compound 0.08 µM)	relative viability (Ruxolitinib + Linsitinib; first compound 0.253 µM)	relative viability (Ruxolitinib + Linsitinib; first compound 0.8 µM)	relative viability (Ruxolitinib + Linsitinib; first compound 2.53 µM)	relative viability (Ruxolitinib + Linsitinib; first compound 8 µM)	relative viability (VE-821 + Palbociclib; first compound 0.08 µM)	relative viability (VE-821 + Palbociclib; first compound 0.253 µM)	relative viability (VE-821 + Palbociclib; first compound 0.8 µM)	relative viability (VE-821 + Palbociclib; first compound 2.53 µM)	relative viability (VE-821 + Palbociclib; first compound 8 µM)	relative viability (Ruxolitinib + Navitoclax; first compound 0.08 µM)	relative viability (Ruxolitinib + Navitoclax; first compound 0.253 µM)	relative viability (Ruxolitinib + Navitoclax; first compound 0.8 µM)	relative viability (Ruxolitinib + Navitoclax; first compound 2.53 µM)	relative viability (Ruxolitinib + Navitoclax; first compound 8 µM)
NCI-H2228	0.401	0.414	0.585	0.566	0.358	0.796	0.686	0.85	0.626	0.559	0.885	0.762	0.981	1.03	0.547	0.925	0.987	1.02	0.921	0.712
NCI-H1792	0.274	0.393	0.281	0.319	0.271	0.495	0.504	0.488	0.417	0.499	0.725	0.698	0.664	0.762	0.66	0.658	0.644	0.595	0.473	0.519
HCC-44	1.86	0.468	0.701	0.708	0.79	0.664	0.739	0.66	0.51	0.395	0.956	0.981	0.992	1.08	1.07	0.991	1.14	0.966	0.664	0.394
201T	0.723	0.626	0.65	0.698	0.559	1.1	1.15	1.19	1.21	1.22	0.37	0.35	0.355	0.318	0.325	1.25	1.31	1.44	1.48	1.36
HOP-62	0.689	0.785	0.807	0.944	0.516		0.995	1.05	0.991	0.867	0.508	0.459	0.471	0.463	0.461	1.02	1.17	1.11	1	1.11
NCI-H1975	0.312	0.216	0.298	0.267	0.26	1.03	1.03	1.05	0.71	0.587	0.601	0.473	0.349	0.607	0.415	1.13	1.04	1.15	0.698	0.591
NCI-H1755	0.509	0.359	0.416	0.418	0.363	1	0.961	0.971	0.9	0.817	0.429	0.437	0.423	0.363	0.424	0.919	0.925	1	0.844	0.732
NCI-H2023	0.278	0.223	0.191	0.194	0.135	0.689	0.589	0.722	0.683	0.672	0.452	0.346	0.317	0.297	0.124	1	0.94	1.08	0.939	0.855
EKVX	0.509	0.412	0.451	0.411	0.356	0.876	0.897	0.966	0.893	0.813	0.458	0.361	0.341	0.429	0.4	1	0.872	0.881	0.821	0.912
LCLC-97TM1	0.178	0.203	0.229	0.224	0.137	0.195	0.151	0.189	0.22	0.219	0.257	0.238	0.25	0.267	0.255	0.459	0.384	0.537	0.492	0.354
NCI-H2085	0.461	0.446	0.485	0.483	0.409	0.875	0.888	1.01	0.836	0.685	0.481	0.489	0.493		0.552	1.12	1.07	1.2	1.11	0.999
BEN	0.707	0.55	0.527	0.591	0.542	0.751	0.887	1.15	0.758	1.03	0.504	0.461	0.469	0.517	0.642	0.0601	0.0767	0.0749	0.0665	0.0571
HARA	0.509	0.294	0.408	0.401	0.477	0.983	1.01	1.03	0.912	0.815	0.227	0.29	0.239	0.279	0.299	1.14	1.11	1.17	1.14	1.25
PC-14	0.91	0.734	0.708	0.759	0.74		0.959	1.04	0.794	0.69	0.648	0.46	0.455	0.351	0.169		1.03	1.01	0.927	0.723
SW 1573	0.625	0.531	0.541	0.569	0.47	0.948	0.669	0.848	0.707	0.534	0.419	0.439	0.449	0.353	0.315	1.06	0.925	1.02	0.918	1.04
NCI-H1355	0.431	0.458	0.411	0.476	0.32	0.794	0.841	0.843	0.753	0.716	0.455	0.349	0.287	0.366	0.361	0.924	0.925	0.992	0.807	0.701
NCI-H460	0.416	0.355	0.288	0.488	0.325	0.801	0.858	0.929	0.702	0.462	0.203	0.166	0.159	0.0414	0.0344	1.17	1.34	1.34	1.13	0.656

Cell Line	relative viability (VE-821 + Pictilisib; first compound 0.08 µM)	relative viability (VE-821 + Pictilisib; first compound 0.253 µM)	relative viability (VE-821 + Pictilisib; first compound 0.8 µM)	relative viability (VE-821 + Pictilisib; first compound 2.53 µM)	relative viability (VE-821 + Pictilisib; first compound 8 µM)	relative viability (Ruxolitinib + Linsitinib; first compound 0.08 µM)	relative viability (Ruxolitinib + Linsitinib; first compound 0.253 µM)	relative viability (Ruxolitinib + Linsitinib; first compound 0.8 µM)	relative viability (Ruxolitinib + Linsitinib; first compound 2.53 µM)	relative viability (Ruxolitinib + Linsitinib; first compound 8 µM)	relative viability (VE-821 + Palbociclib; first compound 0.08 µM)	relative viability (VE-821 + Palbociclib; first compound 0.253 µM)	relative viability (VE-821 + Palbociclib; first compound 0.8 µM)	relative viability (VE-821 + Palbociclib; first compound 2.53 µM)	relative viability (VE-821 + Palbociclib; first compound 8 µM)	relative viability (Ruxolitinib + Navitoclax; first compound 0.08 µM)	relative viability (Ruxolitinib + Navitoclax; first compound 0.253 µM)	relative viability (Ruxolitinib + Navitoclax; first compound 0.8 µM)	relative viability (Ruxolitinib + Navitoclax; first compound 2.53 µM)	relative viability (Ruxolitinib + Navitoclax; first compound 8 µM)
NCI-H2126	0.483	0.436	0.487	0.507	0.439	0.701	0.725	0.731	0.744	0.702	0.36	0.336	0.333	0.296	0.32	0.82	0.725	0.781	0.8	0.689
COR-L 105	0.46	0.392	0.402	0.405	0.38	0.95	0.719	0.912	0.642	0.758	0.432	0.339	0.443	0.409	0.399	0.707	0.701	0.89	0.694	0.515
H3255	0.583	0.553	0.549	0.454	0.568	0.464	0.887	1.17	0.706	0.86	0.288	0.332	0.332	0.326	0.319	0.248	0.393	0.474	0.423	0.425
NCI-H441	0.56	0.527	0.537	0.519	0.352	0.508	0.573	0.512	0.637	0.286	0.251	0.167	0.253	0.246	0.228	0.817	0.501	0.659	0.45	0.623
NCI-H2347	0.565	0.583	0.563	0.525	0.485	0.893	0.939	1.05	0.886	0.965	0.385	0.492	0.42	0.457	0.498	0.783	0.72	0.99	0.741	0.758
CAL-12T	0.479	0.394	0.448	0.427	0.314	0.819	0.744	0.853	0.614	0.7	0.571	0.373	0.472	0.51	0.308	1.1	1.23	1.14	1.15	1.07
HCC-827	1.1	1.03	1.19	1.24	1.19		1.03	0.913	0.972	0.803	0.515	0.516	0.405	0.531	0.522		0.863	0.908	0.857	0.845
NCI-H520	0.321	0.357		0.325	0.276		1.08	1.16	0.847	0.679	0.243	0.242	0.177	0.269	0.188		1.01	1.38	1.22	0.782
A-427	0.763	0.538	0.54	0.684	0.389	1.14	1.11	1.13	0.961	0.922	0.55	0.547	0.565	0.562	0.449	1	0.939	0.959	0.917	0.8
NCI-H727	0.418	0.314	0.232	0.458	0.227	0.283	0.272	0.237	0.228	0.427	0.737	0.726	0.618	0.638	0.659	0.472	0.426	0.627	0.595	0.366
NCI-H1793	0.356	0.312	0.273	0.431	0.425	0.632	0.92	1.04	1.12	0.968	0.361	0.32		0.447	0.333	0.494	0.374	0.486	0.621	0.266
NCI-H23	0.554	0.458	0.506	0.469	0.277	0.579	0.694	0.799	0.485	0.612	0.562	0.49	0.466	0.352	0.274	0.716	1.12	0.978	0.801	0.929
SK-LU-1	0.602	0.557	0.621	0.432	0.316	1.16	1.19	1.27	0.974	0.945	0.408	0.424	0.323	0.376	0.261	0.79	0.634	0.0636	0.539	0.656
NCI-H1395	0.568	0.67	0.652	0.605	0.599		0.998	1.08	0.945	1.01	0.725	0.658	0.549	0.586	0.516		0.993	1.17	1.13	0.944
LOU-NH91	0.527	0.506	0.496	0.524	0.525	0.663	0.895	1.14	0.895	0.872	0.543	0.512	0.545	0.548	0.565	0.487	0.688	0.909	0.585	0.688
NCI-H647	0.472	0.391		0.428	0.263	1.29	1.15	1.22	1.16	1.03	0.385	0.297	0.349	0.371	0.15		0.995	1.27	0.855	0.989
